Laboratory results as given in patent US10214529B2, “Small molecules for the treatment of primary cancer and cancer metastasis” (THE BOARD OF REGENTS OF THE UNIVERSITY OF TEXAS SYSTEM, priority 2015, dated 2019).

How the values were obtained:
[1] = system: MDA-MB-231 human breast cancer cells; assay: Transwell cell migration assay; format: cell-based; conditions: MDA-MB-231 cells, 18-20 hr
Method: (§1) MDA-MB-231 cells were grown in McCoy's 5A Modified Media (Gibco) supplemented with 10% FBS (Hyclone). Py8119 cells were grown in F12K nutrient media (Gibco) supplemented with 5% Fetal Clone II (Fisher Scientific). All cell lines were incubated in a 5% CO2 incubator at 37° C.
Migration assays were performed in transwell membrane filter inserts in 24-well tissue culture plates (BD Biosciences San Jose, Calif., USA). The transwell membrane filter inserts contained 6.5-mm diameter, 8-μm pore size, […] polycarbonate membranes. Five-hundred microliter breast cancer cell suspensions were added to the upper side of the inserts at a density of 10×10^4 cells/insert and 750 μl CM with or without other compounds was added to the lower wells. Cells were incubated at 37° C. for 18-20 hr. […] The number of migrated cells in 5 fields of view per insert was counted under a light microscope at magnification 10×.

MDA-MB-231 cells [2] = assay: Soft agar colony formation assay (anchorage independent cell growth); format: cell-based, human; conditions: 50 μM compound, about 2 weeks
Method: as §1
For anchorage-independent cell growth, MDA-MB-231 cells were plated in 0.4% agarose with complete medium supplemented with 50 μM compound (P1 to P10) on top of a 0.8% agarose base supplemented with complete medium. Cells were maintained for about 2 weeks before staining with p-iodonitrotetrazolium violet (Sigma-Aldrich, St. Louis, Mo.). Images were captured by using a scanner and the numbers of colonies were counted.

MDA-MB-231 cells [3] = assay: Mammary fat pad xenograft assay; format: in vivo; conditions: after 15 days; 500 μl of a 400 μM solution, IP three times a week; MDA-MB-231 xenograft in nude mice
Description: Four-week-old female athymic nude mice (Harlan Sprague-Dawley, Indianapolis, Ind., USA) were used for the mammary fat pad injections. Four- to five-week old female C57bl/6 mice were used for the intratibial injections. Animals were maintained under the care and supervision of the Laboratory Animal Research facility at the University of Texas Health Science Center, San Antonio, Tex. The animal protocol was approved and monitored by the Institutional Animal Care and Use Committee.
MDA-MB-231 cells were injected subcutaneously in the mammary fat pad of 4-week-old female nu/nu athymic nude mice. Each mouse received bilateral subcutaneous inoculation in both the left and right inguinal mammary fat pad areas with 100 μl of cell suspension containing ˜1×10^7 cells/ml in serum-free media. Animals were randomly assigned to 3 different groups, and solid tumors were allowed to form up to about 5 mm^3 volume before treatments began. Compound P3 400 μmol/500 μl saline, or saline as a control was administered intraperitoneally (IP) three times a week for 3 weeks. The growth of xenograft tumors was monitored twice a week and tumor size was measured with a caliper in two dimensions. Tumor volumes were calculated with the equation V=(L×W^2)×0.5 (mm^3), where L is length and W is width of a tumor.

Row | Structure (SMILES) | inhibitory effects on cell migration [1] | decrease in cell colonies as compared to control (MDA-MB-231 cells [2]) | reduction in the tumor size compared to control mice (MDA-MB-231 cells [3])
1 | CCCn1c(=O)c2nc(-c3ccc(OCc4nc5cc(F)ccc5[nH]4)cc3)[nH]c2n(CCC)c1=O [Compound P4] | inhibitory effects |  | 
2 | CCCn1c(=O)c2nc(-c3ccc(OCc4nc5ccccc5[nH]4)cc3)[nH]c2n(CCC)c1=O [Compound P2] | inhibitory effects | 30% | 
3 | CCOc1ccc(-c2nc3c(N)ncnc3n2CC2CCC2)cc1 [Compound P9] | inhibitory effects |  | 
4 | CCCn1c(=O)c2nc(-c3ccc(OCc4nc5cc(C(F)(F)F)ccc5[nH]4)cc3)[nH]c2n(CCC)c1=O [Compound P3] | inhibitory effects | 65% | more than 50%
5 | CCCn1c(=O)c2nc(-c3ccc(OCc4nc5cc(C)ccc5[nH]4)cc3)[nH]c2n(CCC)c1=O [Compound P5] | inhibitory effects |  | 
